{"source": "patent EP0050253A1", "about": "“Antibiotic pharmaceutical composition” (priority 1980, dated 1982)", "key": {"Escherichia coli R^+TEM": {"test_system": "Escherichia coli R^+TEM", "assay": "Agar dilution checkerboard growth test (Caseinpepton-Fleischextrakt-Bouillon-Agar, ~3x10^4 CFU/ml, 18 h, 37 °C)", "type": "cell-based", "protocol": "(§1) Ein Caseinpepton-Fleischextrakt-Bouillon-Agar mit einem Gehalt der angegebenen Menge der nachstehend angegebenen Substanzen A und B wird mit dem Testbakterium geimpft (~3x10^4CFU/ml). Nach der Inkubation während 18 Stunden bei 37 °C wird der Wuchszustand der Testbakterien untersucht. Die Ergebnisse sind in den Tabellen zusammengestellt. In jeder Tabelle bedeutet (+), daß das Testbakterium wächst, und (-) bedeutet, daß das Testbakterium nicht wächst. Man erkennt aus diesen Tabellen, daß die Kombination von D-α-[3-(2-p-Aminosulfonylanilino-4-hydroxy-5-pyrimidinyl)-ureido]-p-hydroxy-benzylpenicillin-Natrium = A bzw."}, "Kl. pneumoniae 1082 E": {"test_system": "Kl. pneumoniae 1082 E", "assay": "Agar dilution checkerboard growth test (Caseinpepton-Fleischextrakt-Bouillon-Agar, ~3x10^4 CFU/ml, 18 h, 37 °C)", "type": "cell-based", "protocol": "as §1"}}}
{"smiles": "CC1(C)S[C@@H]2[C@H](NC(=O)[C@H](NC(=O)Nc3cnc(Nc4ccc(S(N)(=O)=O)cc4)nc3O)c3ccc(O)cc3)C(=O)N2[C@H]1C(=O)O", "note": "[Substanz A, D-α-[3-(2-p-Aminosulfonylanilino-4-hydroxy-5-pyrimidinyl)-ureido]-p-hydroxy-benzylpenicillin-Natrium]", "values": [{"measurement": "Wuchszustand der Testbakterien", "setting": "Escherichia coli R^+TEM; C 0 µg/ml, A 0,5 µg/ml", "result": "+"}, {"measurement": "Wuchszustand der Testbakterien", "setting": "Escherichia coli R^+TEM; C 0 µg/ml, A 1 µg/ml", "result": "+"}, {"measurement": "Wuchszustand der Testbakterien", "setting": "Escherichia coli R^+TEM; C 0 µg/ml, A 2 µg/ml", "result": "+"}, {"measurement": "Wuchszustand der Testbakterien", "setting": "Escherichia coli R^+TEM; C 0 µg/ml, A 4 µg/ml", "result": "+"}, {"measurement": "Wuchszustand der Testbakterien", "setting": "Escherichia coli R^+TEM; C 0 µg/ml, A 8 µg/ml", "result": "+"}, {"measurement": "Wuchszustand der Testbakterien", "setting": "Escherichia coli R^+TEM; C 0 µg/ml, A 16 µg/ml", "result": "+"}, {"measurement": "Wuchszustand der Testbakterien", "setting": "Escherichia coli R^+TEM; C 0 µg/ml, A 32 µg/ml", "result": "+"}, {"measurement": "Wuchszustand der Testbakterien", "setting": "Escherichia coli R^+TEM; C 0 µg/ml, A 64 µg/ml", "result": "+"}, {"measurement": "Wuchszustand der Testbakterien", "setting": "Escherichia coli R^+TEM; C 0 µg/ml, A 128 µg/ml", "result": "+"}, {"measurement": "Wuchszustand der Testbakterien", "setting": "Kl. pneumoniae 1082 E; C 0 µg/ml, A 0,5 µg/ml", "result": "+"}, {"measurement": "Wuchszustand der Testbakterien", "setting": "Kl. pneumoniae 1082 E; C 0 µg/ml, A 0,25 µg/ml", "result": "+"}, {"measurement": "Wuchszustand der Testbakterien", "setting": "Kl. pneumoniae 1082 E; C 0 µg/ml, A 1 µg/ml", "result": "+"}, {"measurement": "Wuchszustand der Testbakterien", "setting": "Kl. pneumoniae 1082 E; C 0 µg/ml, A 2 µg/ml", "result": "+"}, {"measurement": "Wuchszustand der Testbakterien", "setting": "Kl. pneumoniae 1082 E; C 0 µg/ml, A 4 µg/ml", "result": "+"}, {"measurement": "Wuchszustand der Testbakterien", "setting": "Kl. pneumoniae 1082 E; C 0 µg/ml, A 8 µg/ml", "result": "+"}, {"measurement": "Wuchszustand der Testbakterien", "setting": "Kl. pneumoniae 1082 E; C 0 µg/ml, A 16 µg/ml", "result": "+"}, {"measurement": "Wuchszustand der Testbakterien", "setting": "Kl. pneumoniae 1082 E; C 0 µg/ml, A 32 µg/ml", "result": "+"}, {"measurement": "Wuchszustand der Testbakterien", "setting": "Kl. pneumoniae 1082 E; C 0 µg/ml, A 64 µg/ml", "result": "+"}]}
{"smiles": "Cn1nnnc1SCC1=C(C(=O)O)N2C(=O)[C@@H](NC(=O)[C@H](NC(=O)Nc3cnc(Nc4ccc(S(N)(=O)=O)cc4)nc3O)c3ccc(O)cc3)[C@H]2SC1", "note": "[Substanz B]", "values": [{"measurement": "Wuchszustand der Testbakterien", "setting": "Escherichia coli R^+TEM; C 0 µg/ml, B 0,5 µg/ml", "result": "+"}, {"measurement": "Wuchszustand der Testbakterien", "setting": "Escherichia coli R^+TEM; C 0 µg/ml, B 0,06 µg/ml", "result": "+"}, {"measurement": "Wuchszustand der Testbakterien", "setting": "Escherichia coli R^+TEM; C 0 µg/ml, B 0,25 µg/ml", "result": "+"}, {"measurement": "Wuchszustand der Testbakterien", "setting": "Escherichia coli R^+TEM; C 0 µg/ml, B 1 µg/ml", "result": "+"}, {"measurement": "Wuchszustand der Testbakterien", "setting": "Escherichia coli R^+TEM; C 0 µg/ml, B 2 µg/ml", "result": "+"}, {"measurement": "Wuchszustand der Testbakterien", "setting": "Escherichia coli R^+TEM; C 0 µg/ml, B 4 µg/ml", "result": "+"}, {"measurement": "Wuchszustand der Testbakterien", "setting": "Escherichia coli R^+TEM; C 0 µg/ml, B 8 µg/ml", "result": "-"}, {"measurement": "Wuchszustand der Testbakterien", "setting": "Escherichia coli R^+TEM; C 0 µg/ml, B 0,125 µg/ml", "result": "+"}, {"measurement": "Wuchszustand der Testbakterien", "setting": "Kl. pneumoniae 1082 E; C 0 µg/ml, B 0,5 µg/ml", "result": "+"}, {"measurement": "Wuchszustand der Testbakterien", "setting": "Kl. pneumoniae 1082 E; C 0 µg/ml, B 0,25 µg/ml", "result": "+"}, {"measurement": "Wuchszustand der Testbakterien", "setting": "Kl. pneumoniae 1082 E; C 0 µg/ml, B 1 µg/ml", "result": "+"}, {"measurement": "Wuchszustand der Testbakterien", "setting": "Kl. pneumoniae 1082 E; C 0 µg/ml, B 2 µg/ml", "result": "+"}, {"measurement": "Wuchszustand der Testbakterien", "setting": "Kl. pneumoniae 1082 E; C 0 µg/ml, B 4 µg/ml", "result": "+"}, {"measurement": "Wuchszustand der Testbakterien", "setting": "Kl. pneumoniae 1082 E; C 0 µg/ml, B 8 µg/ml", "result": "+"}, {"measurement": "Wuchszustand der Testbakterien", "setting": "Kl. pneumoniae 1082 E; C 0 µg/ml, B 16 µg/ml", "result": "+"}, {"measurement": "Wuchszustand der Testbakterien", "setting": "Kl. pneumoniae 1082 E; C 0 µg/ml, B 32 µg/ml", "result": "+"}, {"measurement": "Wuchszustand der Testbakterien", "setting": "Kl. pneumoniae 1082 E; C 0 µg/ml, B 64 µg/ml", "result": "+"}]}
{"smiles": "O=C(O)[C@H]1/C(=C/CO)O[C@@H]2CC(=O)N21", "note": "[Substanz C, Lithium-Z-(2R,5R)-3-(ß-hydroxyäthyliden)-7-oxo-4-oxa-1-aza-bicyclo[3,2,0]-heptan-2-carboxylat, reference compound]", "values": [{"measurement": "Wuchszustand der Testbakterien", "setting": "Escherichia coli R^+TEM; C 0,5 µg/ml, B 0 µg/ml", "result": "+"}, {"measurement": "Wuchszustand der Testbakterien", "setting": "Escherichia coli R^+TEM; C 0,25 µg/ml, B 0 µg/ml", "result": "+"}, {"measurement": "Wuchszustand der Testbakterien", "setting": "Escherichia coli R^+TEM; C 1 µg/ml, A 0 µg/ml", "result": "+"}, {"measurement": "Wuchszustand der Testbakterien", "setting": "Escherichia coli R^+TEM; C 1 µg/ml, B 0 µg/ml", "result": "+"}, {"measurement": "Wuchszustand der Testbakterien", "setting": "Escherichia coli R^+TEM; C 2 µg/ml, A 0 µg/ml", "result": "+"}, {"measurement": "Wuchszustand der Testbakterien", "setting": "Escherichia coli R^+TEM; C 2 µg/ml, B 0 µg/ml", "result": "+"}, {"measurement": "Wuchszustand der Testbakterien", "setting": "Escherichia coli R^+TEM; C 4 µg/ml, A 0 µg/ml", "result": "+"}, {"measurement": "Wuchszustand der Testbakterien", "setting": "Escherichia coli R^+TEM; C 4 µg/ml, B 0 µg/ml", "result": "+"}, {"measurement": "Wuchszustand der Testbakterien", "setting": "Escherichia coli R^+TEM; C 8 µg/ml, A 0 µg/ml", "result": "+"}, {"measurement": "Wuchszustand der Testbakterien", "setting": "Escherichia coli R^+TEM; C 8 µg/ml, B 0 µg/ml", "result": "+"}, {"measurement": "Wuchszustand der Testbakterien", "setting": "Escherichia coli R^+TEM; C 16 µg/ml, A 0 µg/ml", "result": "+"}, {"measurement": "Wuchszustand der Testbakterien", "setting": "Escherichia coli R^+TEM; C 16 µg/ml, B 0 µg/ml", "result": "+"}, {"measurement": "Wuchszustand der Testbakterien", "setting": "Escherichia coli R^+TEM; C 32 µg/ml, A 0 µg/ml", "result": "-"}, {"measurement": "Wuchszustand der Testbakterien", "setting": "Escherichia coli R^+TEM; C 32 µg/ml, B 0 µg/ml", "result": "-"}, {"measurement": "Wuchszustand der Testbakterien", "setting": "Kl. pneumoniae 1082 E; C 1 µg/ml, A 0 µg/ml", "result": "+"}, {"measurement": "Wuchszustand der Testbakterien", "setting": "Kl. pneumoniae 1082 E; C 1 µg/ml, B 0 µg/ml", "result": "+"}, {"measurement": "Wuchszustand der Testbakterien", "setting": "Kl. pneumoniae 1082 E; C 2 µg/ml, A 0 µg/ml", "result": "+"}, {"measurement": "Wuchszustand der Testbakterien", "setting": "Kl. pneumoniae 1082 E; C 2 µg/ml, B 0 µg/ml", "result": "+"}, {"measurement": "Wuchszustand der Testbakterien", "setting": "Kl. pneumoniae 1082 E; C 4 µg/ml, A 0 µg/ml", "result": "+"}, {"measurement": "Wuchszustand der Testbakterien", "setting": "Kl. pneumoniae 1082 E; C 4 µg/ml, B 0 µg/ml", "result": "+"}, {"measurement": "Wuchszustand der Testbakterien", "setting": "Kl. pneumoniae 1082 E; C 8 µg/ml, A 0 µg/ml", "result": "+"}, {"measurement": "Wuchszustand der Testbakterien", "setting": "Kl. pneumoniae 1082 E; C 8 µg/ml, B 0 µg/ml", "result": "+"}, {"measurement": "Wuchszustand der Testbakterien", "setting": "Kl. pneumoniae 1082 E; C 16 µg/ml, A 0 µg/ml", "result": "+"}, {"measurement": "Wuchszustand der Testbakterien", "setting": "Kl. pneumoniae 1082 E; C 16 µg/ml, B 0 µg/ml", "result": "+"}, {"measurement": "Wuchszustand der Testbakterien", "setting": "Kl. pneumoniae 1082 E; C 32 µg/ml, A 0 µg/ml", "result": "+"}, {"measurement": "Wuchszustand der Testbakterien", "setting": "Kl. pneumoniae 1082 E; C 32 µg/ml, B 0 µg/ml", "result": "+"}, {"measurement": "Wuchszustand der Testbakterien", "setting": "Kl. pneumoniae 1082 E; C 64 µg/ml, A 0 µg/ml", "result": "-"}, {"measurement": "Wuchszustand der Testbakterien", "setting": "Kl. pneumoniae 1082 E; C 64 µg/ml, B 0 µg/ml", "result": "-"}]}
